≈ marks a conversion by molar mass, not a printed value. Where two headings read alike, the source gives them in different places.

Usually solubility stands for the concentration that dissolves in the medium under given conditions.

The conditions of series [1]: cited from earlier work.
A short description of series [2]: Solubility of individual components of flavanolignans in the mixture according to Example 1. Format: physicochemical. The note with it: for solubility: read-out: Solubility of individual component in the mixture according to Example 1. An excerpt:
Solubility of individual components of flavanolignans in the mixture according to Example 1

A short description of series [3]: Solutions of amino acids in water easily prepared at room temperature. Format: physicochemical. An excerpt: When dissolving the mixtures according to the invention in water it is necessary to take into consideration the different solubilities of the basic amino acids themselves.
The conditions of series [4]: aqueous solution, 25° C., cited from earlier work; for p I: pI = ½ (pK2 + pK3).
The conditions of series [5]: 25° C., cited from earlier work.
Where [6] appears, read: Buffer solution pH 4.5 (Bates, sodium acetate and hydrochloric acid, ionic strength 0.05).

`COc1cc([C@@H]2Oc3c(O)cc([C@H]4Oc5cc(O)cc(O)c5C(=O)[C@@H]4O)cc3[C@H]2CO)ccc1O` [silychristin]: in series [1] (25° C.), the pKa.1 is 6.52, the pKa.2 is on record as 7.22 and the pKa.3 is recorded as 8.96. Further, in series [1] (37° C.), the pKa.1 is recorded as 6.62, the pKa.2 is given as 7.41 and the pKa.3 is reported as 8.94. Further, the “Solubility of individual component in the mixture according to Example 1” value (“Solubility of individual component” below) in series [2] (setting [6]) came out at 241.57 mg/L. Besides, the “Solubility of individual component” value in series [2] (Purified water) amounted to 258.24 mg/L.

`COc1cc([C@H]2Oc3cc([C@H]4Oc5cc(O)cc(O)c5C(=O)[C@@H]4O)ccc3O[C@@H]2CO)ccc1O` [Silybin A, silybin A]: the “Solubility of individual component” value in series [2] (setting [6]) was determined as 127.95 mg/L; in series [2] (Purified water), 178.41 mg/L.

In the case of `NCCCC[C@H](N)C(=O)O` [L-lysine], in series [3], the “concentration of amino acid solution in water that can be easily prepared” value was determined as 1.0 M. In series [4], the pK1 is 2.18, the pK2 was 8.95, the pK3 is 10.53 and the “p I” value was 9.47.

In the case of `COc1cc(C2Oc3cc([C@H]4Oc5cc(O)cc(O)c5C(=O)[C@@H]4O)ccc3OC2CO)ccc1O` (stereo partly shown) [silybin], the pKa.1 in series [1] (25° C.) is given as 7.00; in series [1] (37° C.), 6.86. In addition, the pKa.2 entry in series [1] (25° C.) and in series [1] (37° C.) was “pKa.2[25° C.] = 8.77; pKa.2[37° C.] = 8.77” in each case. The pKa.3 in series [1] (25° C.) is 9.57; in series [1] (37° C.), 9.62. Moreover, the solubility of silybin in series [5] (Capryl-caprine triglyceride) was 0.8 ± 0.5 mg/mL; in series [5] (Castor oil), 7.1 ± 1.2 mg/mL; in series [5] (Ethanol), 225.2 ± 5.2 mg/mL; in series [5] (Ethoxy diglycol), 350.1 ± 10.4 mg/mL; in series [5] (Ethyl linoleate) it was 2.1 ± 0.8 mg/mL; in series [5] (Fish oil), 0.5 ± 0.2 mg/mL. For the same compound, the solubility of silybin was 33.2 ± 2.8 mg/mL in series [5] (Glyceryl monooleate); 345.9 ± 9.5 mg/mL in series [5] (Polyethylene glycol 200); 342.1 ± 7.1 mg/mL in series [5] (Polyethylene glycol 400/ethanol (1:1)); 162.4 ± 3.6 mg/mL in series [5] (Propylene glycol); 20.0 ± 1.9 mg/mL in series [5] (Tocopherol); 0.4 ± 0.1 mg/mL in series [5] (Water).

Take `N=C(N)NCCC[C@H](N)C(=O)O` [L-arginine]: in series [4], the pK1 is listed as 2.01, the pK2 is listed as 9.04, the pK3 is 12.48 and the “p I” value was 10.76.

Regarding Isosylibin, the “Solubility of individual component” value in series [2] (setting [6]) stood at 78.63 mg/L; in series [2] (Purified water), 112.90 mg/L.

Turning to `COc1cc([C@@H]2[C@H]3CO[C@@]4(O)C(=O)[C@@H]2C=C([C@H]2Oc5cc(O)cc(O)c5C(=O)[C@@H]2O)[C@@H]34)ccc1O` [silydianin], in series [1] (25° C.), the pKa.1 is reported as 6.64, the pKa.2 is reported as 7.78 and the pKa.3 is 9.66. Besides, in series [1] (37° C.), the pKa.1 is 7.10, the pKa.2 is 8.93 and the pKa.3 is recorded as 10.06. Moreover, the solubility in series [2] (aqueous buffer, Buffer solution pH 4.5 (Bates, sodium acetate and hydrochloric acid, ionic strength 0.05)) is 189 µg/mL (≈ 392 µM). Further, the solubility in series [2] (purified water, water) was 215 µg/mL (≈ 445 µM).

As to `COc1cc([C@@H]2Oc3cc([C@H]4Oc5cc(O)cc(O)c5C(=O)[C@@H]4O)ccc3O[C@H]2CO)ccc1O` [Silybin B, silybin B], the results for the “Solubility of individual component” value in series [2] (setting [6]) and in series [2] (Purified water) were 209.62 mg/L and 289.05 mg/L, respectively.

Source of the values: patent US8426459B2, “Composition of flavanolignan and amino acid with improved water solubility” (Agra Group, A.S., priority 2008, dated 2013).
